Experimental data reported in PubChem BioAssay (NCI).
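Five compound concentrations were applied to cells in 96-well plates for 48 hours; endpoints were derived by simple linear interpolation of the resulting dose-response curve. TGI: total growth inhibition.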

Key:
Test in all cases: NCI-60 cell line screen, 48 h
786-0 renal = tested on: 786-0 renal
A498 renal = tested on: A498 renal
A549 NSCLC = tested on: A549 NSCLC
ACHN renal = tested on: ACHN renal
BT-549 breast = tested on: BT-549 breast
CAKI-1 renal = tested on: CAKI-1 renal
CCRF-CEM leukemia = tested on: CCRF-CEM leukemia
COLO 205 colon = tested on: COLO 205 colon
DU-145 prostate = tested on: DU-145 prostate
EKVX NSCLC = tested on: EKVX NSCLC
HCC-2998 colon = tested on: HCC-2998 colon
HCT-116 colon = tested on: HCT-116 colon
HCT-15 colon = tested on: HCT-15 colon
HL-60(TB) leukemia = tested on: HL-60(TB) leukemia
HOP-62 NSCLC = tested on: HOP-62 NSCLC
HOP-92 NSCLC = tested on: HOP-92 NSCLC
HS 578T breast = tested on: HS 578T breast
HT29 colon = tested on: HT29 colon
IGROV1 ovarian = tested on: IGROV1 ovarian
K-562 leukemia = tested on: K-562 leukemia
KM12 colon = tested on: KM12 colon
LOX IMVI melanoma = tested on: LOX IMVI melanoma
M14 melanoma = tested on: M14 melanoma
MALME-3M melanoma = tested on: MALME-3M melanoma
MCF7 breast = tested on: MCF7 breast
MDA-MB-231 breast = tested on: MDA-MB-231 breast
MDA-MB-435 = tested on: MDA-MB-435
MDA-N = tested on: MDA-N
MOLT-4 leukemia = tested on: MOLT-4 leukemia
NCI-H226 lung = tested on: NCI-H226 lung
NCI-H23 lung = tested on: NCI-H23 lung
NCI-H460 lung = tested on: NCI-H460 lung
NCI-H522 lung = tested on: NCI-H522 lung
NCI/ADR-RES ovarian = tested on: NCI/ADR-RES ovarian
OVCAR-3 ovarian = tested on: OVCAR-3 ovarian
OVCAR-4 ovarian = tested on: OVCAR-4 ovarian
OVCAR-5 ovarian = tested on: OVCAR-5 ovarian
OVCAR-8 ovarian = tested on: OVCAR-8 ovarian
PC-3 prostate = tested on: PC-3 prostate
RPMI-8226 leukemia = tested on: RPMI-8226 leukemia
RXF 393 renal = tested on: RXF 393 renal
SF-268 CNS = tested on: SF-268 CNS
SF-295 CNS = tested on: SF-295 CNS
SF-539 CNS = tested on: SF-539 CNS
SK-MEL-2 melanoma = tested on: SK-MEL-2 melanoma
SK-MEL-28 melanoma = tested on: SK-MEL-28 melanoma
SK-MEL-5 melanoma = tested on: SK-MEL-5 melanoma
SK-OV-3 ovarian = tested on: SK-OV-3 ovarian
SN12C renal = tested on: SN12C renal
SNB-19 CNS = tested on: SNB-19 CNS
SNB-75 CNS = tested on: SNB-75 CNS
SW-620 colon = tested on: SW-620 colon
T-47D breast = tested on: T-47D breast
TK-10 renal = tested on: TK-10 renal
U251 CNS = tested on: U251 CNS
UACC-257 melanoma = tested on: UACC-257 melanoma
UACC-62 melanoma = tested on: UACC-62 melanoma
UO-31 renal = tested on: UO-31 renal

**Q.** How did the TGI (786-0 renal) turn out when COc1cc2c(cc1OC)-c1cc3ccccc3c(=O)n1CCC2 was run?
**A.** Its TGI is over 51.3 µM.

**Q.** And the TGI (A498 renal)?
**A.** Its TGI is 31.5 µM.

**Q.** And the TGI (A549 NSCLC)?
**A.** Its TGI is over 100 µM.

**Q.** And the TGI (ACHN renal)?
**A.** Its TGI is over 100 µM.

**Q.** What about the TGI (BT-549 breast) of the same compound?
**A.** The TGI was 89.2 µM.

**Q.** What about the TGI (CAKI-1 renal) of the same compound?
**A.** Its TGI is 44.9 µM.

**Q.** What about the TGI (CCRF-CEM leukemia) of the same compound?
**A.** Its TGI is 33.9 µM.

**Q.** What about the TGI (COLO 205 colon) of the same compound?
**A.** The TGI was over 60.2 µM.

**Q.** What about the TGI (DU-145 prostate) of the same compound?
**A.** Its TGI is over 66 µM.

**Q.** What about the TGI (EKVX NSCLC) of the same compound?
**A.** Its TGI is over 100 µM.

**Q.** What about the TGI (HCC-2998 colon) of the same compound?
**A.** The TGI was over 64.3 µM.

**Q.** And the TGI (HCT-116 colon)?
**A.** The TGI was over 38.6 µM.

**Q.** And the TGI (HCT-15 colon)?
**A.** Its TGI is 27.5 µM.

**Q.** And the TGI (HL-60(TB) leukemia)?
**A.** Its TGI is 11.5 µM.

**Q.** And the TGI (HOP-62 NSCLC)?
**A.** Its TGI is over 75.3 µM.

**Q.** And the TGI (HOP-92 NSCLC)?
**A.** The TGI was 68.3 µM.

**Q.** What about the TGI (HS 578T breast) of the same compound?
**A.** The TGI was over 100 µM.

**Q.** What about the TGI (HT29 colon) of the same compound?
**A.** The TGI was 41.2 µM.

**Q.** And the TGI (IGROV1 ovarian)?
**A.** The TGI was 66 µM.

**Q.** And the TGI (K-562 leukemia)?
**A.** Its TGI is over 81.9 µM.

**Q.** What about the TGI (KM12 colon) of the same compound?
**A.** Its TGI is 38 µM.

**Q.** What about the TGI (LOX IMVI melanoma) of the same compound?
**A.** Its TGI is 13.7 µM.

**Q.** What about the TGI (M14 melanoma) of the same compound?
**A.** Its TGI is over 59.1 µM.

**Q.** What about the TGI (MALME-3M melanoma) of the same compound?
**A.** Its TGI is 98.1 µM.

**Q.** What about the TGI (MCF7 breast) of the same compound?
**A.** The TGI was over 89.5 µM.

**Q.** And the TGI (MDA-MB-231 breast)?
**A.** The TGI was 57.2 µM.

**Q.** What about the TGI (MDA-MB-435) of the same compound?
**A.** Its TGI is over 53.7 µM.

**Q.** And the TGI (MDA-N)?
**A.** Its TGI is 33.6 µM.

**Q.** What about the TGI (MOLT-4 leukemia) of the same compound?
**A.** Its TGI is 10.4 µM.

**Q.** And the TGI (NCI-H226 lung)?
**A.** The TGI was 70.5 µM.

**Q.** What about the TGI (NCI-H23 lung) of the same compound?
**A.** Its TGI is 65.1 µM.

**Q.** What about the TGI (NCI-H460 lung) of the same compound?
**A.** Its TGI is 11.2 µM.

**Q.** What about the TGI (NCI-H522 lung) of the same compound?
**A.** Its TGI is 74.9 µM.

**Q.** And the TGI (NCI/ADR-RES ovarian)?
**A.** Its TGI is 32.2 µM.

**Q.** What about the TGI (OVCAR-3 ovarian) of the same compound?
**A.** The TGI was 60.4 µM.

**Q.** And the TGI (OVCAR-4 ovarian)?
**A.** Its TGI is over 100 µM.

**Q.** What about the TGI (OVCAR-5 ovarian) of the same compound?
**A.** The TGI was over 100 µM.

**Q.** And the TGI (OVCAR-8 ovarian)?
**A.** Its TGI is 61.2 µM.

**Q.** And the TGI (PC-3 prostate)?
**A.** The TGI was 62.7 µM.

**Q.** And the TGI (RPMI-8226 leukemia)?
**A.** Its TGI is 29.4 µM.

**Q.** What about the TGI (RXF 393 renal) of the same compound?
**A.** Its TGI is 57.5 µM.

**Q.** And the TGI (SF-268 CNS)?
**A.** The TGI was over 100 µM.

**Q.** And the TGI (SF-295 CNS)?
**A.** The TGI was over 85 µM.

**Q.** And the TGI (SF-539 CNS)?
**A.** The TGI was 26 µM.

**Q.** And the TGI (SK-MEL-2 melanoma)?
**A.** The TGI was 86.6 µM.

**Q.** What about the TGI (SK-MEL-28 melanoma) of the same compound?
**A.** Its TGI is over 73.6 µM.

**Q.** What about the TGI (SK-MEL-5 melanoma) of the same compound?
**A.** Its TGI is 28 µM.

**Q.** And the TGI (SK-OV-3 ovarian)?
**A.** Its TGI is over 100 µM.

**Q.** What about the TGI (SN12C renal) of the same compound?
**A.** Its TGI is 78.9 µM.

**Q.** And the TGI (SNB-19 CNS)?
**A.** Its TGI is over 100 µM.

**Q.** What about the TGI (SNB-75 CNS) of the same compound?
**A.** Its TGI is over 90.3 µM.

**Q.** And the TGI (SW-620 colon)?
**A.** Its TGI is over 87.9 µM.

**Q.** And the TGI (T-47D breast)?
**A.** The TGI was 68.9 µM.

**Q.** And the TGI (TK-10 renal)?
**A.** The TGI was over 100 µM.

**Q.** What about the TGI (U251 CNS) of the same compound?
**A.** The TGI was over 65.7 µM.

**Q.** What about the TGI (UACC-257 melanoma) of the same compound?
**A.** The TGI was over 86.1 µM.

**Q.** What about the TGI (UACC-62 melanoma) of the same compound?
**A.** The TGI was 36.5 µM.

**Q.** And the TGI (UO-31 renal)?
**A.** Its TGI is 61.1 µM.
